Results taken from ChEMBL document CHEMBL4020738, “Antioxidant and anticholinesterase potential of diterpenoid alkaloids from Aconitum heterophyllum” (Bioorg Med Chem, 2017).

Experiments:
[1] = target: Acetylcholinesterase (Electrophorus electricus) (UniProt O42275); assay: Inhibition of electric eel AChE at 0.1 mM using acetylthiocholine iodide as substrate preincubated for 15 mins followed by substrate addition by spectrophotometric method relative to control
[2] = target: Cholinesterase (Equus caballus) (UniProt P81908); assay: Inhibition of horse serum BChE at 0.1 mM using butyrylcholine chloride as substrate preincubated for 15 mins followed by substrate addition by spectrophotometric method relative to control
[3] = target: Acetylcholinesterase (Electrophorus electricus, UniProt O42275); assay: Inhibition of electric eel AChE using acetylthiocholine iodide as substrate preincubated for 15 mins followed by substrate addition by spectrophotometric method
[4] = target: Cholinesterase (Equus caballus, UniProt P81908); assay: Inhibition of horse serum BChE using butyrylcholine chloride as substrate preincubated for 15 mins followed by substrate addition by spectrophotometric method
[5] = Antioxidant activity assessed as inhibition of DPPH free radical at 50 uM after 30 mins relative to control; assay type: functional
[6] = Antioxidant activity assessed as inhibition of DPPH free radical at 75 uM after 30 mins relative to control; assay type: functional
[7] = Antioxidant activity assessed as inhibition of DPPH free radical at 100 uM after 30 mins relative to control; assay type: functional
[8] = Antioxidant activity assessed as inhibition of DPPH free radical at 125 uM after 30 mins relative to control; assay type: functional
[9] = Antioxidant activity assessed as inhibition of DPPH free radical after 30 mins; assay type: functional

Acetylcholinesterase (Electrophorus electricus), sequence (O42275 24-633 limits assumed): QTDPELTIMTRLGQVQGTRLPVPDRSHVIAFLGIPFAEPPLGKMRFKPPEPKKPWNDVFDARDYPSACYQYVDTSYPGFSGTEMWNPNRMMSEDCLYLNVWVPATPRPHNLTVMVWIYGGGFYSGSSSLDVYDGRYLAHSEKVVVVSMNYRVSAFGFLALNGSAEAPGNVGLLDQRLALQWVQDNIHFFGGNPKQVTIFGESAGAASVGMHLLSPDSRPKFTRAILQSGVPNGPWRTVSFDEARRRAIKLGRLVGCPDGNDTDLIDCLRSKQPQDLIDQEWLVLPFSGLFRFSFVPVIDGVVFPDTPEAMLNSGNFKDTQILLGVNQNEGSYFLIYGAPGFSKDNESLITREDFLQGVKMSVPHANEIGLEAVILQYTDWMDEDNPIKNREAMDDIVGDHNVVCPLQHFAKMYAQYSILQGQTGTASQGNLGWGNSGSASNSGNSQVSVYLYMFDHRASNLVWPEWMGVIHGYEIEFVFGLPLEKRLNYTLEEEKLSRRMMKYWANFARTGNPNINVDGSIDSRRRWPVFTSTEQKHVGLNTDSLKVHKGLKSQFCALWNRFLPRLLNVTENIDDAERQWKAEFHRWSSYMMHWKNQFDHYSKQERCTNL
Acetylcholinesterase, sequence (O42275 whole entry): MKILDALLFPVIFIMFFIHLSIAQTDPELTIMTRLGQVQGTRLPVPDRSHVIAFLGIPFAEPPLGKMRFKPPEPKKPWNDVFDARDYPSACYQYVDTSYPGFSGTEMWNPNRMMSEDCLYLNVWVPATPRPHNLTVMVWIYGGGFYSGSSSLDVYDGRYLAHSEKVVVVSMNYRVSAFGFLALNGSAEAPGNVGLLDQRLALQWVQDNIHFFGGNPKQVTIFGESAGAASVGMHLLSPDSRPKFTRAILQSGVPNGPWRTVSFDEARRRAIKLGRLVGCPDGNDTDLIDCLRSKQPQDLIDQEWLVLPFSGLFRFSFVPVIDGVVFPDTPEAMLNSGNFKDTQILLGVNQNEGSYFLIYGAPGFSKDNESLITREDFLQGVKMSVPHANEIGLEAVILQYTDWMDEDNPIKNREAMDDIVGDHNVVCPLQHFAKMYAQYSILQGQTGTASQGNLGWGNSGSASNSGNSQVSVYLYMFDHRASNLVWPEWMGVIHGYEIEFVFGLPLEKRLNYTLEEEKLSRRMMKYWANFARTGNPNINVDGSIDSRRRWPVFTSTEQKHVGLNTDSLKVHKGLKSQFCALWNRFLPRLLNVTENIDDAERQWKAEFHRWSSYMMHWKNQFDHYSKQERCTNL
Cholinesterase (Equus caballus), sequence (P81908 whole entry): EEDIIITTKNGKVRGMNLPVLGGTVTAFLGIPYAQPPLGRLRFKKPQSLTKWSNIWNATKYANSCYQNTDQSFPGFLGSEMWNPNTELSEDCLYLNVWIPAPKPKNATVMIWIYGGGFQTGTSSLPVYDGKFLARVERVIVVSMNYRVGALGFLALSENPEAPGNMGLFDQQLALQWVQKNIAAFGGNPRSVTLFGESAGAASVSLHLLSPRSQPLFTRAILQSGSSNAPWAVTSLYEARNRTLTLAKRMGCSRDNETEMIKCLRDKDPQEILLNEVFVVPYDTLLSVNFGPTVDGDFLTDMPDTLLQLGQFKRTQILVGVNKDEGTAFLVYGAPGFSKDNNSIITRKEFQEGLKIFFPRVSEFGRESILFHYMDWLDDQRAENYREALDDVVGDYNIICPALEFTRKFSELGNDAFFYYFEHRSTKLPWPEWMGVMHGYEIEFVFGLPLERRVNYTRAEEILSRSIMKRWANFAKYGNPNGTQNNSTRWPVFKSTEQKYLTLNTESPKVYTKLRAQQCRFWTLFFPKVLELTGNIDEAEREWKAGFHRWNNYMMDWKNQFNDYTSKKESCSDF
Cholinesterase, sequence (P81908 whole entry): as above

Structure (SMILES): CCN1C[C@]2(C)CC[C@H](OC)[C@]34C1[C@H]([C@@H](O)[C@H]23)[C@@]1(O)CC[C@H]2C[C@@H]4[C@@H]1C(=O)O2
- inhibition [1]: > 50%
- inhibition [2]: > 50%
- IC50 [3]: 6.5 µM
- IC50 [4]: 10.4 µM
- inhibition [5]: 19.3%
- inhibition [6]: 39.3%
- inhibition [7]: 47.3%
- inhibition [8]: 52.4%
- inhibition [9]: Dose-dependent effect

Structure (SMILES): O=C1O[C@H]([C@@H](O)CO)C(O)=C1O
- inhibition [5]: 75%
- inhibition [6]: 85%
- inhibition [7]: 90%
- inhibition [8]: 96%

Structure (SMILES): C=C1C[C@]23C[C@@H]4[C@@H]5[C@@]6(C)CC(=O)C[C@]57C([C@@H]2[C@@H](O)[C@H]1[C@@H](O)[C@@H]37)N4C6
- inhibition [1]: > 50%
- inhibition [2]: > 50%
- IC50 [3]: 10.1 µM
- IC50 [4]: 15.6 µM
- inhibition [5]: 12.1%
- inhibition [6]: 32%
- inhibition [7]: 40%
- inhibition [8]: 65.5%
- inhibition [9]: Dose-dependent effect

Structure (SMILES): C=C1[C@H]2CC[C@@]3(C(=O)C[C@@H]4[C@@]5(C)CCC[C@@]4(CN(CCO)C5)[C@@H]3C2)[C@@H]1O
- inhibition [1]: > 50%
- inhibition [2]: > 50%
- IC50 [3]: 14.6 µM
- IC50 [4]: 18.1 µM
- inhibition [5]: 20%
- inhibition [6]: 31.2%
- inhibition [7]: 40%
- inhibition [8]: 45%
- inhibition [9]: Dose-dependent effect

Structure (SMILES): C=C1[C@H]2C[C@H]3C4N5C[C@]6(C)CCC[C@@]47[C@@H]6[C@@]5(O)CC3([C@@H]1O)[C@@H]7C2
- inhibition [1]: > 50%
- inhibition [2]: > 50%
- IC50 [3]: 12.8 µM
- IC50 [4]: 16.2 µM
- inhibition [5]: 17%
- inhibition [6]: 25%
- inhibition [7]: 36%
- inhibition [8]: 41.2%
- inhibition [9]: Dose-dependent effect

Structure (SMILES): CCN1C[C@]2(C)CC[C@H](OC)[C@]34C1[C@@](C)([C@@H](OC)[C@H]23)[C@@]1(O)CC[C@H]2C[C@@H]4C1(O)C(=O)O2
- inhibition [1]: > 50%
- inhibition [2]: > 50%
- IC50 [3]: 5.4 µM
- IC50 [4]: 8.6 µM
- inhibition [5]: 22.2%
- inhibition [6]: 28.3%
- inhibition [7]: 33.2%
- inhibition [8]: 38.4%
- inhibition [9]: Dose-dependent effect

Structure (SMILES): C=C1[C@H]2CC[C@@]3(CC[C@@H]4[C@]5(C)CCC[C@]4(CN4CCO[C@@H]45)[C@@H]3C2)[C@@H]1O
- inhibition [1]: > 50%
- inhibition [2]: > 50%
- IC50 [3]: 10.3 µM
- IC50 [4]: 14.7 µM
- inhibition [5]: 12.3%
- inhibition [6]: 30.1%
- inhibition [7]: 42.1%
- inhibition [8]: 55.2%
- inhibition [9]: Dose-dependent effect

Structure (SMILES): C=C1[C@H]2CC[C@@]3(CC[C@H]4[C@]5(CCC[C@]4(C)C4OCCN4C5)[C@@H]3C2)[C@@H]1O (stereo partly specified)
- inhibition [1]: > 50%
- inhibition [2]: > 50%
- IC50 [3]: 8.4 µM
- IC50 [4]: 13.1 µM
- inhibition [5]: 11.8%
- inhibition [6]: 23.3%
- inhibition [7]: 49.4%
- inhibition [8]: 60%
- inhibition [9]: Dose-dependent effect

Structure (SMILES): C=C1CC23C[C@H]4[C@@H]5[C@@]6(C)CC[C@H](O)[C@]57C([C@@H]2[C@@H](O)[C@H]1[C@@H](O)[C@@H]37)N4C6
- inhibition [1]: > 50%
- inhibition [2]: > 50%
- IC50 [3]: 6.5 µM
- IC50 [4]: 9.3 µM
- inhibition [5]: 22.5%
- inhibition [6]: 27%
- inhibition [7]: 60.3%
- inhibition [8]: 79.6%
- inhibition [9]: Dose-dependent effect
